Values of other authors as cited in patent US20150216903A1, “COMPOUNDS FOR IMPROVED VIRAL TRANSDUCTION” (BLUEBIRD BIO, INC., priority 2012, published 2015).

Legend:
[1] = test system: HIV; conditions: previous publications (Hayes 2002); cited from earlier work
[2] = Raz, FEBS Letters 1972; cited from earlier work

Row | Structure (SMILES) | effect on HIV replication [1] | conversion upon exposure to plasma [2]
1 | CCCCC[C@H](O)/C=C/[C@H]1C=CC(=O)[C@@H]1C/C=C\CCCC(=O)O [PGA2, prostaglandin A2] | inhibits HIV replication | 
2 | CCCCC[C@H](O)/C=C/[C@H]1[C@H](O)CC(=O)[C@@H]1C/C=C\CCCC(=O)O [PGE2, prostaglandin E2] | antagonistic to HIV replication | rapidly converts to prostaglandin A2 (PGA2)
